What was measured:
[1] = test system: caspase-9 and -3/-7 in 2LMP cells; assay: Fluorometric caspase activity assays; assay type: cell-based, human; details: 5 μM
Protocol: Fluorometric caspase activity assays: Cells were harvested in cell lysis buffer provided by Biovision research products (Mountain View, Calif.). 20 μg of protein was evaluated for caspase activity by incubating with fluorogenic caspase-3 or -9 substrate (EMD Biosciences) in reaction buffer (Biovision). Detection of cleavage of substrate Ac-DEVD-AFC (preferentially cleaved by caspase-3) and Ac-LEHD-AFC (preferentially cleaved by caspase-9) were measured at a λexc=400 nm and λem=505 nm using a Telcan Ultra plate reader (Männedorf, Switzerland). Experiments were performed in triplicate.

PC-3 cells = assay: Apoptosis (Annexin V/PI flow cytometry) after siRNA knock-down; assay type: cell-based, human
Protocol: (§1) Cell Growth, Cell Death, and Apoptosis: Cell growth inhibition by (−)-gossypol was determined in a water-soluble tetrazolium (WST)-based assay, as described previously (Shangary et al., Proc. Natl. Acad. Sci. USA 105:3933 (2008)). Cell viability was determined by trypan blue due exclusion as described (Shangary et al., Proc. Natl. Acad. Sci. USA 105:3933 (2008)). Experiments were done in triplicate. To examine apoptosis, cells were stained with Annexin V and PI and analyzed by flow cytometery using an Annexin V-FITC staining kit (Roche Applied Science, Indianapolis, Ind.) according to manufacturer's instructions. Briefly, cells were treated and collected by centrifugation, washed with PBS once and then stained with annexinV-FITC and PI for 15 min at room temperature in the dark. Stained cells were analyzed in a FACS caliber flow cytometer. AnnexinV positive cells are considered as apoptotic cells.
RNA interference: Gene specific double-stranded RNA oligonucleotide targeting Noxa, Puma, c-Myc, HIF1-α, E2F1#2, Bax, Bak, were purchased from Dharmacon RNAi technologies as Sigenome on-targetplus SMARTpool duplex (Lafayette, Colo.). SiRNA of E2F#1 was purchased from Santa Cruz. As a negative control, siRNA against GFP target sequence 5′-[…]-3′ was employed (Qiagen, Valencia, Calif.). Transfections were performed using Lipofectamine RNAiMAX, according to manufacturer's instructions (Invitrogen, Carlsbad, Calif.). (−)-Gossypol was added 24 h after transfection and cells were harvested after 18 h treatment of (−)-gossypol. Three independent knock down experiments were performed for each gene.

RKO colon cancer cells = assay: Cell death after c-Myc knock-down; assay type: cell-based; details: p53 wild-type, c-Myc siRNA
Protocol: as §1
RNA interference: Gene specific double-stranded RNA oligonucleotide targeting Noxa, Puma, c-Myc, HIF1-α, E2F1#2, Bax, Bak, were purchased from Dharmacon RNAi technologies as Sigenome on-targetplus SMARTpool duplex (Lafayette, Colo.). SiRNA of E2F#1 was purchased from Santa Cruz. As a negative control, siRNA against GFP target sequence 5′-[…]-3′ was employed (Qiagen, Valencia, Calif.). […]

Bcl-xL = Bcl-xL (Homo sapiens, UniProt Q07817); details: Wang et al., J. Med. Chem. 49:6139 (2006); cited from earlier work
Mcl-1 = Mcl-1 (Homo sapiens, UniProt Q07820); details: Wang et al., J. Med. Chem. 49:6139 (2006); cited from earlier work
Mcl-1, sequence (Q07820 whole entry): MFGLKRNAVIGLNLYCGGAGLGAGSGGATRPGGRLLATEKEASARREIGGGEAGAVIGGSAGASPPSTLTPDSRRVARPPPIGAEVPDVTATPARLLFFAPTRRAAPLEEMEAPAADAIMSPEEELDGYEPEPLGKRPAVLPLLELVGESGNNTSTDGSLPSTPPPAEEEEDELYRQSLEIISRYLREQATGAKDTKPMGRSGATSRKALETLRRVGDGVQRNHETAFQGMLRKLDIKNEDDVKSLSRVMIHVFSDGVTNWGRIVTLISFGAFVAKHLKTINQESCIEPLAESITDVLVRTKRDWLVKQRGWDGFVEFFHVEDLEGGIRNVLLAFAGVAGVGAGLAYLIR

Bcl-xL, sequence (Q07817 whole entry): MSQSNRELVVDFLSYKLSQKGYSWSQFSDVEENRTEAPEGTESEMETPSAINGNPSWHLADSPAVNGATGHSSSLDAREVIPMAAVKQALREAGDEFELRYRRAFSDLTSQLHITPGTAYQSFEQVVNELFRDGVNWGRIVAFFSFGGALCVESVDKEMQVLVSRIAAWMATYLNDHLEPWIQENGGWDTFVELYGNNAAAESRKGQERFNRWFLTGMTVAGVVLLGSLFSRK

For Cc1cc2c(C(C)C)c(O)c(O)c(C=O)c2c(O)c1-c1c(C)cc2c(C(C)C)c(O)c(O)c(C=O)c2c1O [(−)-gossypol], the “activity of caspase-9 and -3/-7 induced” value ([1]; 24 h treatment) was 7 fold, the “activity of caspase-9 and -3/-7 induced” value ([1]; 48 h treatment) was greater than 60 fold and the “cell death induction blocked by knock-down of c-Myc” value (PC-3 cells; 10 μM, c-Myc siRNA) was greater than 70%. For the same compound, the “effect of double knockdown of Bax/Bak on apoptosis induction” value (PC-3 cells; 18 h, Bax and Bak siRNA) was “no effect”, the “cell death induction upon c-Myc knock-down” value (RKO colon cancer cells) was “effective blockage” and the binding affinity (Bcl-xL) was “low to sub-micromolar”. The binding affinity (Mcl-1) was “low to sub-micromolar”.

From patent US20120302629A1, “BIOMARKERS FOR GOSSYPOL CHEMOTHERAPY AND METHODS OF TREATING DISEASE” (THE REGENTS OF THE UNIVERSITY OF MICHIGAN, priority 2009, published 2012)
